One may read the MIC as the least concentration at which growth counts as inhibited. A high value points to a less susceptible organism.

≈ marks a conversion by molar mass, not a printed value. Where two headings read alike, the source gives them in different places.

For two compounds, IC50, MIC and Solubility in solvents results are on record in patent US20100291622A1, “NOVEL COMPOUND, PROCESS FOR PRODUCTION THEREOF, AND USE THEREOF” (SCHOOL JURIDICAL PERSON KITASATO INSTITUTE, priority 2007, published 2010).

Series [1] concerns the target T1, undecaprenyl diphosphate synthase derived from Staphylococcus aureus (Staphylococcus aureus, UniProt P60477).
T1 construct: made in house; host or cells: E. coli BL21 (DE3), T7 promoter, IPTG induction; unpurified cell-free extract (100,000 x g supernatant)
Kind of series: Inhibitory effect on undecaprenyl diphosphate synthase (phosphate release, Amplex Red fluorescence). The format is biochemical. The procedure:
(1) Inhibitory effect on the undecaprenyl diphosphate synthase derived from Staphylococcus aureus
The test on the activity of undecaprenyl diphosphate synthase was determined following a method of LI et al. (J. Biomol. Screen., vol. 8, pages 712-715, 2003) with partial changes. […]
The measurement of the activity of undecaprenyl diphosphate synthase was conducted as follows: the FKI-3368 substance was added to a buffer solution B (100 mM Tris-HCl buffer solution (pH 7.5), 50 mM potassium chloride, 0.5 mM magnesium chloride, 0.5 μM farnesyl diphosphate, 3.5 μM isopentenyl diphosphate, […] inorganic pyrophosphatase) so that 90 μL in total volume might be respectively put in each well of a 96-well microplate. […] In order to quantify the released phosphate, 100 μL of a solution C (0.5M Tris-HCl buffer solution (pH 8.8), 1.5 mM inosine, 50 μM Amplex™ Red, 0.02 U nucleoside phosphorylase, 1 U peroxidase, 0.4 U xanthine oxidase) was added to each well and after reaction was performed at room temperature for 40 minutes, fluorescence intensity was measured under the conditions of an excitation wavelength at 544 nm and a measurement wavelength at 590 nm.
The addition amount of […] and the intensity of fluorescence (F.I.) measured in a reaction liquid without the addition thereof were applied to the following expression and the inhibition % was calculated: […]

The subject of series [2] is Aspergillus niger ATCC 9642. The series is described as follows: MIC by agar dilution. The format is cell-based. The conditions noted are these: ATCC9642; Aspergillus niger ATCC 9642, 27° C. for 40 hours. The procedure:
(§1) The measurement of the minimal inhibitory concentration (MIC) for various microbes of the FKI-3368-I substance of the present invention was performed by the following method. An ethanol solution of the FKI-3368-I substance was subjected to 2-fold dilution from the concentration of 1,000 μg/ml to prepare 14 stage diluted solutions (1,000 μg/ml, 500 μg/ml, 250 μg/ml, 125 μg/ml, 62.5 μg/ml, 31.3 μg/ml, 15.6 μg/ml, 7.8 μg/ml, 3.9 μg/ml, 2 μg/ml, 1 μg/ml, 0.5 μg/ml, 0.24 μg/ml and 0.12 μg/ml). After 1 ml each of the respective diluted solutions was placed on a round shape dish (90 mm (diameter)×20 mm, produced by IWAKI Co., Ltd.), 9 ml of a culture medium-N for sensitivity disc (for bacteria; produced by Nissui Pharmaceutical Co., Ltd.) or Sabouraud glucose agar (for yeast or mold; produced by Nihon Pharmaceutical Co., Ltd.) was added thereto to form plate media. The test microbes had been incubated in advance in Muller Hinton culture media (for bacteria; produced by Nissui Pharmaceutical Co., Ltd.) or potato dextrose agar media (for yeast or mold; produced by Nissui Pharmaceutical Co., Ltd.). On the very date when the test was performed, the resultant microbe suspensions were diluted with an Muller Hinton culture medium or a potato dextrose culture medium and a platinum loop thereof was streak-smeared on the plate media. These streak-smeared plate media was incubated at 37° C. for 18 hours (for bacteria) or at 27° C. for 40 hours (for yeast and mold) and MIC was determined.
On the technique in general: In agar dilution the substance is mixed into plates at graded concentrations.

The subject of series [3] is Bacillus subtilis ATCC 6633. The series is described as follows: MIC by agar dilution. It is filed as cell-based. To be noted: ATCC6633; Bacillus subtilis ATCC 6633, 37° C. for 18 hours. The procedure: as §1
The test system of series [4] is Candida albicans ATCC 64550. Kind of series: MIC by agar dilution. The format is cell-based. To be noted: ATCC64550, 40 h. The procedure: as §1
In another series the test system is Escherichia coli NIHJ. Kind of series: MIC by agar dilution. It is filed as cell-based. The conditions noted are these: 37° C. for 18 hours. The procedure: as §1
The test system of series [5] is Klebsiella pneumoniae ATCC 10031. Kind of series: MIC by agar dilution. The format is cell-based. The conditions noted are these: ATCC10031; Klebsiella pneumoniae ATCC 10031, 37° C. for 18 hours. On the procedure: as §1
The next series relates to MRSA K24. The series is described as follows: MIC by agar dilution. The format is cell-based. To be noted: Staphylococcus aureus, 18 h. On the procedure:
as §1

The test system of series [6] is Micrococcus luteus ATCC 9341. Kind of series: MIC by agar dilution. It is filed as cell-based. The conditions noted are these: ATCC9341; Micrococcus luteus ATCC 9341, 37° C. for 18 hours. The procedure:
as §1

The test system of a further series is Mucor racemosus IFO 4581. Kind of series: MIC by agar dilution. The format is cell-based. The conditions noted are these: IFO4581; Mucor racemosus IFO 4581, 27° C. for 40 hours. The procedure:
as §1

The test system of series [7] is Mycobaderium smegmatis ATCC 607. The series is described as follows: MIC by agar dilution. The format is cell-based. To be noted: 18 h. The procedure:
as §1

Series [8] deals with Penicillium chrysogenam IAM 12842. The series is described as follows: MIC by agar dilution. The conditions noted are these: IAM12842, 40 h. The format is cell-based. On the procedure:
as §1

Series [9] deals with Pseudomonas aeruginosa IFO 3080. The series is described as follows: MIC by agar dilution. It is filed as cell-based. The conditions noted are these: IFO3080; Pseudomonas aeruginosa IFO 3080, 37° C. for 18 hours. The procedure:
as §1

For series [10], the system named is Saccharomyces cerevisiae ATCC 9763. The series is described as follows: MIC by agar dilution. The format is cell-based. The conditions noted are these: ATCC9763; Saccharomyces cerevisiae ATCC 9763, 27° C. for 40 hours. The procedure:
as §1

The test system of series [11] is Serratia marcescens IAM 1021. The series is described as follows: MIC by agar dilution. It is filed as cell-based. The conditions noted are these: IAM1021; Serratia marcescens IAM 1021, 37° C. for 18 hours. The procedure:
as §1

Series [12] concerns Staphylococcus aureus ATCC 6538P. The series is described as follows: MIC by agar dilution. The conditions noted are these: ATCC6538P, 37° C. for 18 hours. The format is cell-based. The procedure:
as §1

A further series can be described thus: Solubility in solvents. The format is physicochemical.
[13] abbreviates: methanol, ethanol, acetonitrile, ethyl acetate, chloroform and dimethylsulfoxide.

T1 sequence (P60477 whole entry): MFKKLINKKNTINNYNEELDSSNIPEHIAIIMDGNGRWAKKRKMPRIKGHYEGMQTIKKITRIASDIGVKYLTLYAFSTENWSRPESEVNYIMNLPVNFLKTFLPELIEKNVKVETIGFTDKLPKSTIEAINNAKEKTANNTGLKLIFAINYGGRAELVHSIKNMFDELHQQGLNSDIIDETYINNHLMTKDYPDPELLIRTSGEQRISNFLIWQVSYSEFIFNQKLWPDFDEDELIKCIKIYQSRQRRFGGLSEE

In the case of `COc1cc(O)c2c(O)c3c(c4c2c1C1(C4)C(C)=CCCC1(C)C)C(O)C1(O)CC(O)=C(C(N)=O)C(=O)C1(O)C3=O` (centres unmarked) [FKI-3368-1], the IC50 in series [1] (cell-free extract of transformed E. Coli as enzyme source, 37° C., 20 minutes, read-out: concentration at which the undecaprenyl diphosphate synthase activity was inhibited to 50% (IC50)) stood at 4 µM. In addition, the MIC in [2] is 12.5 µg/mL (≈ 22.1 µM); in series [3], 0.4 µg/mL (≈ 0.707 µM); in [4], 6.25 µg/mL (≈ 11.1 µM); against Escherichia coli NIHJ, > 100 µg/mL; in [5] it was > 100 µg/mL; with MRSA K24, 0.78 µg/mL (≈ 1.38 µM). The MIC was 1.56 µg/mL (≈ 2.76 µM) in series [6]; 25 µg/mL (≈ 44.2 µM) in the series on Mucor racemosus IFO 4581; > 100 µg/mL in series [7]; 6.25 µg/mL (≈ 11.1 µM) in [8]; > 100 µg/mL in series [9]; 12.5 µg/mL (≈ 22.1 µM) in [10]. The MIC in series [11] is > 100 µg/mL; in series [12] it was 0.78 µg/mL (≈ 1.38 µM). Moreover, the Solubility in solvents result in “Solubility in solvents” (setting [13]) was “Soluble”; in “Solubility in solvents” (water) it was “indissoluble”.

`COc1cc(O)c2c(O)c3c(c4c2c1C1(C4)C(C)=CCCC1(C)C)C(O)C1(O)CC(O)=C(C(C)=O)C(=O)C1(O)C3=O` (centres unmarked) [FKI-3368-2] yielded an IC50 in [1] of 10 µM. For the same compound, the results for the Solubility in solvents result in “Solubility in solvents” (setting [13]) and in the series “Solubility in solvents” (water) were “Soluble” and “indissoluble”, respectively.
